The record followed here is US20150225377A1, “VEGFR3 INHIBITORS” (CANCER THERAPEUTICS CRC PTY LIMITED, priority 2012, published 2015).

For this test, the target named is T1, VEGFR2 (Homo sapiens, UniProt P35968).
T1 construct: host or cells: HUVEC
Put plainly: VEGFR2 Phospho ELISA assay in HUVEC, VEGF stimulated. It is filed as cell-based. Particulars: 1 hour compound, 50 ng/mL VEGF 10 minutes. The method, then: Adult human umbilical vein endothelial cells (HUVEC) (Cat#CC-2519, Lonza) were seeded into clear-bottom, TC treated 12 well plates (Cat #665180, Greiner Bio-One) in EGM-2 (Cat#CC-3162, Lonza) at 180,000 cells/well (volume 1 mL), and the plates incubated at 37° C. and 5% CO2 for 6 hours. The media was replaced with EBM-2 (Cat #CC-3156, Lonza)+0.1% BSA (Cat#A8412, Sigma) and cells incubated for a further period (overnight at 37° C. and 5% CO2).
96 well Maxisorp immuno plates (Cat #439454, Nunc) were coated with 100 μL of Total VEGFR^2 capture antibody (Part #841434, Human Total VEGFR^2/FLT4 ELISA Kit, Cat #DYC1780, R&D Systems), or Phospho VEGFR^2 Capture antibody (Part #841419, Human Phospho VEGFR^2/FLT4 ELISA Kit, Cat#DYC1766, R&D Systems). The plates were covered and incubated at room temperature overnight.
The coating antibody was flicked out and the plates washed three times with Wash Buffer (Phosphate buffered saline (137 mM NaCl, […], […], […], pH 7.2-7.4), 0.05% Tween 20). 300 μL of Blocking buffer (1% v/v BSA (Cat#A8412, Sigma) in PBS) was then added to wells and plate incubated for 2 hours at room temperature. Blocking solution is flicked out and plates washed three times and tapped dry.
Compound dilution series were prepared in EBM-2 (Cat #CC-3156, Lonza)+0.1% BSA (Cat#A8412, Sigma) with constant 0.1% DMSO concentration. 427.5 μL of sample or vehicle control was added to the cell monolayers. Cells are treated for 1 hour at 37° C. and 5% CO2. 50 ng/mL Recombinant human VEGF (Cat #293-VC, R & D Systems) added to wells and plates incubated for an additional 10 minutes at 37° C. and 5% CO2.
The media and compounds were removed and the cell monolayer washed once in Dulbecco's Phosphate Buffered Saline (Cat #21600-044, Invitrogen). 130 μL of Lysis buffer added to wells and cell lysate harvested and transferred to tubes and stored on ice. Complete lysis buffer was prepared by adding 10 μL Protease Inhibitor Cocktail (Cat #P8340, Sigma-Aldrich), 10 μL PMSF (Phenylmethanesulfonyl fluoride, Cat #P7626, Sigma-Aldrich, prepared as 500 mM DMSO stock) per 1 mL of Phosphosafe™ Extraction Reagent (Cat #71296, Merck).
The harvested samples were then diluted 1:2 in IC Diluent #12 (1% NP-40, […] (pH 8.0), 137 mM NaCl, 10% glycerol, 2 mM EDTA, 1 mM activated sodium orthovanadate) and 100 μL transferred to the Total and Phospho VEGFR^2 coated, blocked and washed 96 well plates and incubated for 2 hours at room temperature. The plates were then washed three times in wash buffer as described above and tapped dry.
For detection of Total VEGFR^2100 μL of Detection antibody (Total VEGFR^2 Detection Antibody Part#841435 in Total VEGFR^2 kit) diluted in IC Diluent #14 (20 mM Tris, […], 0.05% Tween20, 0.1% BSA) was added to wells and the plate incubated for 2 hours at room temperature. The plate was then washed three times in wash buffer and tapped dry. 100 μL of streptavidin-HPR diluted in IC diluent #14 Streptavidin-HRP, Part #890803 in Total VEGFR^2 kit) was added to wells and incubated at room temperature for 20 minutes followed by washing as described above. 100 μL Substrate solution (3,3′,5,5′-Tetramethylbenzidine (TMB) Liquid Substrate System for ELISA, Cat #T0440, Sigma-Aldrich) was added and the plate incubated for 20 minutes in the dark at room temperature followed by the addition of 50 μL stop solution (2 M H2SO4).
Total VEGFR^2 levels were quantified using a Multiskan Ascent plate reader and Ascent software fitted with 450 nm filter.
For detection of Phospho VEGFR^2, 100 μL of Detection antibody (Anti-Phospho-Tyrosine-HRP Detection Antibody, Part #841403 in Phospho VEGFR^2 kit) was diluted in IC Diluent 14 (20 mM Tris, […], 0.05% Tween20, 0.1% BSA), was added to the wells and the plate incubated for 2 hours at room temperature. The plate was then washed three times in wash buffer as described above and tapped dry. […]
On the technique in general: ELISA stands for enzyme-linked immunosorbent assay.

T1 sequence (P35968 20-1356): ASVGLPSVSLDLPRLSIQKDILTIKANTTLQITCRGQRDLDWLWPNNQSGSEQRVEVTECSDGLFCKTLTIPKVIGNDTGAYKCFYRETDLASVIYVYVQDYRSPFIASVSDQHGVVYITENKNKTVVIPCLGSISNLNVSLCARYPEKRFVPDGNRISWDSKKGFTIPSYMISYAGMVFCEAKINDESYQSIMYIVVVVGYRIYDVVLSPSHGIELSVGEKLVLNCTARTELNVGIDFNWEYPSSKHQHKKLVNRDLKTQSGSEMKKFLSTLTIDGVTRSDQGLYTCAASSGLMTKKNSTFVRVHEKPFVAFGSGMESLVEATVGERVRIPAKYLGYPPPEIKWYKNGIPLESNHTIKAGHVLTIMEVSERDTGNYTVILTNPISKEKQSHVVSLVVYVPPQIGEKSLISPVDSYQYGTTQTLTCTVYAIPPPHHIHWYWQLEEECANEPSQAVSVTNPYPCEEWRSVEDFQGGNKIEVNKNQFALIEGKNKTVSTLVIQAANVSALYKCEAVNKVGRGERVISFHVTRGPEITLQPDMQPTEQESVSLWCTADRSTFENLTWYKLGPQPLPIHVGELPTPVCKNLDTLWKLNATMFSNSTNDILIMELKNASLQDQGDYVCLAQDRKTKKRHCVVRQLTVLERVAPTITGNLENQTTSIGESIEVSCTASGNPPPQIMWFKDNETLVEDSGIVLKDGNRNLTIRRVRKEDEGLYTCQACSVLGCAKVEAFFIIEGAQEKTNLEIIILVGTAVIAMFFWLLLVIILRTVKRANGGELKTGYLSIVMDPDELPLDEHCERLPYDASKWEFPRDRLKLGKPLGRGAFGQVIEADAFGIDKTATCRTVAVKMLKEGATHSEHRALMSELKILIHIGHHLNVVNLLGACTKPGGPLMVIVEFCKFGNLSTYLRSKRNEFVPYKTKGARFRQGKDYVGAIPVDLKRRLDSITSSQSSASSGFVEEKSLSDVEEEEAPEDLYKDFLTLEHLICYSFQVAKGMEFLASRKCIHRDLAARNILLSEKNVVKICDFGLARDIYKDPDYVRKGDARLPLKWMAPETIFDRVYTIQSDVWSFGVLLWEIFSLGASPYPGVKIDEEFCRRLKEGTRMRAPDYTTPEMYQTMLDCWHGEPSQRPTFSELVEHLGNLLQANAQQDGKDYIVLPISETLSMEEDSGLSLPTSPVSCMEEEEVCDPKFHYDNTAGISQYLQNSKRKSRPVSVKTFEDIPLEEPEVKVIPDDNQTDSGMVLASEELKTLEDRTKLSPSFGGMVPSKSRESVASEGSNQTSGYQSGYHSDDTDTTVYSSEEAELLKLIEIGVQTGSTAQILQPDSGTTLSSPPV

`Cc1cnc(Nc2ccc(N3CCNCC3)cc2)nc1CCc1ccccc1CC(N)=O` [Compound 2, 2-(2-(2-(5-methyl-2-((4-(piperazin-1-yl)phenyl)amino)pyrimidin-4-yl)ethyl)phenyl)acetamide]: half-maximal inhibition (IC50) required 4400 nM. In other words, the single-digit micromolar range.
In the case of `Cc1cnc(Nc2ccc(C3CCNCC3)nc2)nc1CCc1ccccc1CC(N)=O` [Compound 4, 2-(2-(2-(5-methyl-2-((6-(piperidin-4-yl)pyridin-3-yl)amino)pyrimidin-4-yl)ethyl)phenyl)acetamide] it was over 10000 nM.
In the case of `CC(N)c1ccc(Nc2ncc(C(F)(F)F)c(CCc3ccccc3CC(N)=O)n2)cc1` (stereo not drawn) [Compound 18, 2-(2-(2-(2-(4-(1-aminoethyl)phenylamino)-5-(trifluoromethyl)pyrimidin-4-yl)ethyl)phenyl)acetamide] it was 2550 nM; in that of `Cc1cnc(Nc2cccnc2)nc1CCc1ccccc1CC(N)=O` [Compound 24, 2-(2-(2-(5-methyl-2-(pyridin-3-ylamino)pyrimidin-4-yl)ethyl)phenyl)acetamide], over 10000 nM.
Under `Cc1cnc(Nc2ccc(OC3CCNCC3)cc2)nc1CCc1ccccc1CC(N)=O` [Compound 26, 2-(2-(2-(5-methyl-2-((4-(piperidin-4-yloxy)phenyl)amino)pyrimidin-4-yl)ethyl)phenyl)acetamide] stands 4070 nM.
The compound `Cc1cnc(Nc2cnn(C)c2)nc1CCc1ccccc1CC(N)=O` [Compound 28, 2-(2-(2-(5-methyl-2-((1-methyl-^1H-pyrazol-4-yl)amino)pyrimidin-4-yl)ethyl)phenyl)acetamide] showed an IC50 of 6840 nM.
Under `Cc1cnc(Nc2ccc(C3(N)COC3)cc2)nc1CCc1ccccc1CC(N)=O` [Compound 31, 2-(2-(2-(2-(4-(3-aminooxetan-3-yl)phenylamino)-5-methylpyrimidin-4-yl)ethyl)phenyl)acetamide] stands 5100 nM; under `Cc1cnc(Nc2cnn(C3CCNCC3)c2)nc1CCc1ccccc1CC(N)=O` [Compound 33, 2-(2-(2-(5-Methyl-2-((1-(piperidin-4-yl)-^1H-pyrazol-4-yl)amino)pyrimidin-4-yl)ethyl)phenyl)acetamide], over 10000 nM; under `CC(N)c1ccc(Nc2ncc(Cl)c(CCc3ccccc3CC(N)=O)n2)cc1` (stereo not drawn) [Compound 37, 2-(2-(2-(2-(4-(1-aminoethyl)phenylamino)-5-chloropyrimidin-4-yl)ethyl)phenyl)acetamide], 200 nM.

The term IC50 denotes the concentration that gives 50% inhibition. Low readings indicate inhibition by little substance, high ones a need for much substance.
